Measurements: paper PMC7297862, “In Vivo Tumor Growth Inhibition and Antiangiogenic Effect of Cyclic NGR Peptide-Daunorubicin Conjugates Developed for Targeted Drug Delivery” (Pathology Oncology Research, 2019)
Like-named read-outs stand apart in the source and are kept apart here.

Key:
[1] = tested on: CD13(+) Kaposi's sarcoma cells (KS); test: MTT antiproliferative assay on KS cells; type: cell-based; conditions: Homo sapiens, 24 h treatment followed by 48 h incubation in drug free medium, average ± SD
Description: (§1) KS (Kaposi’s sarcoma) derived from human Kaposi sarcoma and HT-29 (human colorectal adenocarcinoma) cell line obtained from ATCC were cultured in RPMI 1640 medium with glutamine (Roswell Park Memorial Institute Medium, Lonza, Basel, Switzerland), and MRC-5 (normal fibroblast) cells were cultured in DMEM (Dulbecco’s Modified Eagle’s Medium, Lonza). All media were supplemented with 10% heat-inactivated FBS (Fetal Bovine Serum, Euroclone, Milan, Italy), and with 1% penicillin/streptomycin (Sigma-Aldrich). Cells were cultured in sterile T25 or T75 flasks with ventilation cap (Sarstedt, Nümbrecht, Germany) at 37 °C in a humidified atmosphere with 5% CO2.
(§2) For evaluation of in vitro antiproliferative activity of NGR-Dau conjugates and free Dau, cell viability was determined by MTT assay (3-(4,5-dimethylthiazol-2-yl)-2,5-diphenyl-tetrazolium bromide (Sigma Aldrich)). […] The formazan crystals were dissolved in 100 μL of a 1:1 solution of DMSO (Sigma-Aldrich):EtOH (Molar Chemicals) and the absorbance was measured after 15 min at λ = 570 nm by using a microplate reader (Bio-Rad, model 550, Hercules, CA, USA). The IC50 values of the conjugates and free drug were calculated using GraphPad Prism 6 (GraphPad Software, San Diego, CA, USA). […]

[2] = tested on: orthotopic HT-29 human colon carcinoma bearing SCID mice; test: Orthotopic HT-29 human colon tumor model; type: in vivo, mouse; conditions: orthotopic HT-29 model
Source text: (§3) The immunodeficient SCID mice on a C.B.-17 background were bred in specific opportunistic and pathogen free isolator breeding rooms. The breeding isolator was supplied with corn-cob bedding and standard VRF1 rodent chow and with acidified (pH = 3) sterilized distilled water. The mice from the breeding rooms were used for the subcutaneous model of KS and orthotopic model of human colon cancer. They were held in filter-top boxes in the experimental barrier rooms, and every box-opening was performed under a Class 100 laminar-flow hood. The animal housing density was in accordance with the international recommendations. The cage components, corn-cob bedding and food (VRF1 from Special Diet Services) were steam-sterilized in an autoclave (121 °C, 20 min). The animals used in these studies were cared for according to the “Guiding Principles for the Care and Use of Animals” based upon the Helsinki declaration, and they were approved by the local ethical committee. Permission license for breeding and performing experiments with laboratory animals: PEI/001/1738-3/2015 and PEI/001/2574–6/2015.
HT-29 human colon cancer cells were injected into SCID female mice subcutaneously (s.c.), 3 × 10^6 cells per animal in volume of 200 μL M199 medium per animal, in order to establish tumor for transplantation. After 2 weeks, the mice with palpable tumors were sacrificed by cervical dislocation, and the subcutaneous tumor was dissected out aseptically. Tumor pieces of 2 mm^3 were transplanted orthotopically, under aseptic conditions into anesthetized (narcotic mixture: tiletamine, zolazepam, xylazine, butorphanol) SCID female mice (19-25 g). A small midline incision (0.5 cm) was made and the colorectal part of the intestine was exteriorized. Serosa of the site where the tumor pieces were to be implanted were removed. Tumor tissue fragments of HT-29 human colon tumor were implanted on the top of the animal intestine; an 8/0 surgical (polypropylene) suture was used to suture it on the wall of the intestine. The intestine was returned to the abdominal cavity, and the abdominal wall was closed with 4/0 surgical (polyglycolic acid) sutures. The wound was sterilized and the animals were kept in a sterile environment. On the next day, no sign of pain and/or stress of the mice was observed. The treatments started 6 days after tumor transplantation by i.p. administration of the compounds dissolved in distilled water for injection. 8 mice per group were used.
One group of mice were treated with free Dau (1 mg/kg body weight) on days 6, 13 and 20 after tumor transplantation. Animal groups treated with compounds 1 and 2 were administered with a dose of 10 mg/kg Dau content (33.8 and 33.5 mg/kg of each conjugate, respectively) on days 6, 8, 10, 13, 17, 20 and 24 after tumor transplantation. Control group was treated with sterile water as solvent in 0.2 mL volume per animal. The experiment was terminated on day 27 after tumor transplantation (day 22 of treatment). Daunorubicin treated group was terminated on day 24 after tumor transplantation (day 19 of treatment) due to significant weight loss of the animals. The mice from all groups were sacrificed by cervical dislocation. Their primary tumors and livers were harvested and weighed, while metastases were counted in other organs.

[3] = tested on: CD13(−) HT-29 human colorectal adenocarcinoma cells; test: MTT antiproliferative assay on HT-29 cells; type: cell-based; conditions: average ± SD
Description: as §1, §2

[4] = tested on: orthotopic HT-29 human colon primary tumor; test: Proliferation index (KI-67) in HT-29 primary tumor; type: in vivo, mouse
Description: (§4) HT-29 human colon cancer cells were injected into SCID female mice subcutaneously (s.c.), 3 × 10^6 cells per animal in volume of 200 μL M199 medium per animal, in order to establish tumor for transplantation. After 2 weeks, the mice with palpable tumors were sacrificed by cervical dislocation, and the subcutaneous tumor was dissected out aseptically. Tumor pieces of 2 mm^3 were transplanted orthotopically, under aseptic conditions into anesthetized (narcotic mixture: tiletamine, zolazepam, xylazine, butorphanol) SCID female mice (19-25 g). A small midline incision (0.5 cm) was made and the colorectal part of the intestine was exteriorized. Serosa of the site where the tumor pieces were to be implanted were removed. […]
(§5) One group of mice were treated with free Dau (1 mg/kg body weight) on days 6, 13 and 20 after tumor transplantation. […] Their primary tumors and livers were harvested and weighed, while metastases were counted in other organs.
(§6) The routinely formalin-fixed tumors were dehydrated in a graded series of ethanol, infiltrated with xylene and embedded into paraffin at a temperature not exceeding 60 °C. […] The KI-67-positive tumor cells were counted manually per fields of vision under light microscope (400-fold magnification), and 3 fields of view per tumor were evaluated. Proliferation index was calculated as percentage of KI-67 positive cells from all cells in the field of view. […]

[5] = tested on: orthotopic HT-29 human colon primary tumor; test: Vascularization (CD31 blood vessel density) in HT-29 primary tumor; type: in vivo, mouse; conditions: percentage printed in Fig. 7d
Description: as §4, §5, §6

[6] = tested on: subcutaneous Kaposi's sarcoma bearing SCID mice; test: Subcutaneous Kaposi's sarcoma model; type: in vivo, mouse; conditions: KS s.c. model, free Dau 1 mg/kg 5 treatments
Source text: as §3
(§7) Kaposi’s sarcoma (KS) cells were injected into SCID female mice (19-24 g) (s.c.), 3 × 10^6 cells per animal in volume of 200 μL M199 medium per animal. Treatment started 35 days after cell inoculation when average tumor volume was 66 mm^3, by i.p. administration. […] Treatment volume was 0.2 mL/animal. Animal weight and tumor volumes were measured initially when the treatment started and at periodic intervals according to the treatment schedule. A digital caliper was used to measure the longest (a) and the shortest diameter (b) of a given tumor. The tumor volume was calculated using the formula V = ab^2 × π/6, whereby a and b represent the measured parameters (length and width). The experiment was terminated on day 70 after tumor transplantation (day 36 of treatment). The mice from all groups were sacrificed by cervical dislocation. Their primary tumors and livers were harvested and weighed.

[7] = tested on: subcutaneous Kaposi's sarcoma primary tumor; test: Proliferation index (KI-67) in KS primary tumor; type: in vivo, mouse; conditions: percentage printed in Fig. 7a
Description: as §7, with “The experiment was terminated on day 70 after tumor transplantation (day 36 of treatment). The mice from all groups were sacrificed by cervical dislocation. Their primary tumors and livers were harvested and weighed.” left out
(§8) The routinely formalin-fixed tumors were dehydrated in a graded series of ethanol, infiltrated with xylene and embedded into paraffin at a temperature not exceeding 60 °C. […] The KI-67-positive tumor cells were counted manually per fields of vision under light microscope (400-fold magnification), and 3 fields of view per tumor were evaluated. Proliferation index was calculated as percentage of KI-67 positive cells from all cells in the field of view. The CD31-positive blood vessels were counted manually using light microscope (200-fold magnification), whereby 3 fields of view per tumor were evaluated, and blood vessel density was calculated as number of blood vessels per mm^2.

[8] = MTT antiproliferative assay on MRC-5 cells; type: cell-based; conditions: human, MRC-5 cells (normal, non-cancerous human fibroblasts), 72 h continuous treatment, average ± SD
Description: as §1, §2

[9] = tested on: subcutaneous Kaposi's sarcoma primary tumor; test: Vascularization (CD31 blood vessel density) in KS primary tumor; type: in vivo, mouse; conditions: percentage printed in Fig. 7c
Description: as §7, with “The experiment was terminated on day 70 after tumor transplantation (day 36 of treatment). The mice from all groups were sacrificed by cervical dislocation. Their primary tumors and livers were harvested and weighed.” left out
as §8

## COc1cccc2c1C(=O)c1c(O)c3c(c(O)c1C2=O)C[C@@](O)(C(C)=O)C[C@@H]3O[C@H]1C[C@H](N)[C@H](O)[C@H](C)O1 [Dau, daunorubicin]
[1]
  IC50: 100 ± 10 nM
[2]; conjugates 10 mg/kg Dau content 7 treatments (day 27), free Dau 1 mg/kg 3 treatments (day 24)
  inhibition of tumor weight compared to control: 67.7%
[2]; conjugates 10 mg/kg Dau content i.p. 7 treatments, free Dau 1 mg/kg 3 treatments, days after tumor transplantation, 8 animals per group
  animal body weight during treatment: significantly decreased body weight from day 17
[2]; conjugates day 27, Dau day 24
  liver/body weight ratio, percentage of control: 85.5%
[2]; control 7 out of 8
  animals with metastases near the primary tumor, out of 8 animals: 1
[2]; free Dau 1 mg/kg 3 treatments, p < 0.05
  decrease of liver/body weight ratio in comparison to control: 14.5%
[2]; metastases near the primary tumor
  inhibition of weight of metastases in comparison to control: 78.3%
[2]; percentage printed in Fig. 6b, conjugates day 27, Dau day 24
  tumor weight, percentage of control: 32.3%
[2]; percentage printed in Fig. 6d
  weight of metastases, percentage of control: 21.7%
[3]; 24 h treatment followed by 48 h incubation in drug free medium, read-out: HT-29 (24 h) IC50
  IC50: 90 ± 10 nM
[3]; 72 h continuous treatment, read-out: HT-29 (72 h) IC50
  IC50: 100 ± 10 nM
[4]; percentage printed in Fig. 7b
  proliferation index, percentage of control: 88.8%
[4]; significant
  inhibition of proliferation (KI-67 proliferation index) compared to control: 11.2%
[5]
  blood vessel density, percentage of control: 62.0%
[6]; conjugates 10 mg/kg Dau content i.p. 11 treatments, day 70 after cell inoculation, 5 animals per group
  decrease of animal body weight at end of experiment: 16.7%
[6]; conjugates 10 mg/kg Dau content i.p. 11 treatments, end of experiment (day 70)
  inhibition of tumor volume compared to control: 18.6%
[6]; day 70, p < 0.05
  decrease of liver/body weight ratio in comparison to control: 12.3%
[7]
  proliferation index, percentage of control: 98.2%
[8]
  IC50 at 72 h: 250 ± 60 nM
[9]
  blood vessel density, percentage of control: 81.4%
